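Protocol summary: plate cells (96-well), add compound at 5 concentrations, incubate 48 h, interpolate endpoints linearly. Abbreviation: GI50, concentration required for 50% inhibition of growth.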 Active and inactive are the calls of the source. Cut-off read from the data, not from the text of the source: active = GI50 up to about 1.1 µM and inactive = higher.
Assays:
Experiment in all cases: inhibition of tumour cell growth, NCI panel, 48 h
ACHN = tested on: ACHN
DU-145 = tested on: DU-145
HCT-116 = tested on: HCT-116
HCT-15 = tested on: HCT-15
KM12 = tested on: KM12
MCF7 = tested on: MCF7
MOLT-4 = tested on: MOLT-4
NCI-H226 = tested on: NCI-H226
NCI-H522 = tested on: NCI-H522
OVCAR-8 = tested on: OVCAR-8
RPMI-8226 = tested on: RPMI-8226
RXF 393 = tested on: RXF 393
SF-539 = tested on: SF-539
SR = tested on: SR
TK-10 = tested on: TK-10
U-251 = tested on: U-251
UACC-257 = tested on: UACC-257
HT-29 = tested on: HT-29
SK-OV-3 = tested on: SK-OV-3

Structure (SMILES) | GI50 (ACHN) | GI50 (DU-145) | GI50 (HCT-116) | GI50 (HCT-15) [µM] | GI50 (KM12) | GI50 (MCF7) | GI50 (MOLT-4) | GI50 (NCI-H226) | GI50 (NCI-H522) | GI50 (OVCAR-8) | GI50 (RPMI-8226) | GI50 (RXF 393) | GI50 (SF-539) | GI50 (SR) | GI50 (TK-10) | GI50 (U-251) | GI50 (UACC-257) | GI50 (HT-29) | GI50 (SK-OV-3)
COC(=O)c1ccccc1/C=C1\Cc2ccc3ccccc3c2C1C (stereo not given) | > 100 µM (inactive) | > 100 µM (inactive) | 8.09 µM (inactive) | 58.5 | 41.4 µM (inactive) | 50.4 µM (inactive) | 27.2 µM (inactive) | > 100 µM (inactive) | 16.6 µM (inactive) | > 100 µM (inactive) | 37 µM (inactive) | 39.2 µM (inactive) | > 100 µM (inactive) | 32.7 µM (inactive) | > 100 µM (inactive) | > 100 µM (inactive) | 48.9 µM (inactive) | – | –
Cc1ccc2c(c1)SSSSS2 | 18.4 µM (inactive) | 16.6 µM (inactive) | 14.3 µM (inactive) | 14.1 | 18.9 µM (inactive) | 18.6 µM (inactive) | 30.5 µM (inactive) | – | 16.3 µM (inactive) | 21.9 µM (inactive) | – | 21.1 µM (inactive) | – | 40.3 µM (inactive) | 20 µM (inactive) | 34.3 µM (inactive) | 17.6 µM (inactive) | 28.1 µM (inactive) | 21.9 µM (inactive)
COc1ccc(Cn2nc(OCc3ccccc3)c3cc([N+](=O)[O-])ccc32)cc1 | > 100 µM (inactive) | > 100 µM (inactive) | – | > 100 | > 100 µM (inactive) | > 100 µM (inactive) | > 100 µM (inactive) | > 100 µM (inactive) | > 100 µM (inactive) | > 100 µM (inactive) | > 100 µM (inactive) | > 100 µM (inactive) | > 100 µM (inactive) | > 100 µM (inactive) | > 100 µM (inactive) | – | > 100 µM (inactive) | > 100 µM (inactive) | > 100 µM (inactive)
CCOc1nc(-c2ccccc2)cc(-c2ccc(N3CCOCC3)cc2)c1C#N | > 100 µM (inactive) | > 100 µM (inactive) | > 100 µM (inactive) | > 100 | > 100 µM (inactive) | > 100 µM (inactive) | > 100 µM (inactive) | > 100 µM (inactive) | > 100 µM (inactive) | > 100 µM (inactive) | 77.4 µM (inactive) | > 100 µM (inactive) | > 100 µM (inactive) | > 100 µM (inactive) | > 100 µM (inactive) | > 100 µM (inactive) | 19.1 µM (inactive) | > 100 µM (inactive) | –
C1=N\c2ccc(cc2)/N=C\c2ccccc2OCc2cccc(n2)COc2ccccc2/1 | 61.4 µM (inactive) | > 100 µM (inactive) | > 100 µM (inactive) | > 100 | > 100 µM (inactive) | > 100 µM (inactive) | > 100 µM (inactive) | > 100 µM (inactive) | > 100 µM (inactive) | > 100 µM (inactive) | – | 5.19 µM (inactive) | 10.7 µM (inactive) | > 100 µM (inactive) | > 100 µM (inactive) | 45 µM (inactive) | > 100 µM (inactive) | > 100 µM (inactive) | > 100 µM (inactive)
C/C(=N\Nc1nc2ccccc2n1C)c1cc2ccccc2cn1 | < 0.01 µM (active) | 1.58 µM (inactive) | < 0.01 µM (active) | < 0.01 | < 0.025 µM (active) | < 0.01 µM (active) | < 0.01 µM (active) | 0.0448 µM (active) | < 0.01 µM (active) | < 0.0182 µM (active) | < 0.01 µM (active) | 0.229 µM (active) | 0.441 µM (active) | < 0.0169 µM (active) | – | < 0.0275 µM (active) | < 0.0105 µM (active) | < 0.0118 µM (active) | 0.0339 µM (active)
CC1(C)OC(=O)N(c2ccccc2)C12C=Cc1cc([N+](=O)[O-])cc([N+](=O)[O-])c1O2 (stereo not given) | > 100 µM (inactive) | > 100 µM (inactive) | > 100 µM (inactive) | > 100 | > 100 µM (inactive) | > 100 µM (inactive) | > 100 µM (inactive) | > 100 µM (inactive) | 25.2 µM (inactive) | > 100 µM (inactive) | > 100 µM (inactive) | > 100 µM (inactive) | – | > 100 µM (inactive) | > 100 µM (inactive) | > 100 µM (inactive) | 50.2 µM (inactive) | > 100 µM (inactive) | > 100 µM (inactive)
COc1ccc(NC(C(N)=O)c2cc3cc(Br)ccc3nc2Cl)cc1 (stereo not given) | > 100 µM (inactive) | > 100 µM (inactive) | 61 µM (inactive) | 47.5 | 48.4 µM (inactive) | 32.4 µM (inactive) | 20.2 µM (inactive) | > 100 µM (inactive) | 34 µM (inactive) | 57.1 µM (inactive) | 30.4 µM (inactive) | 38.3 µM (inactive) | 19.1 µM (inactive) | 15.6 µM (inactive) | 3.64 µM (inactive) | – | 71.8 µM (inactive) | > 100 µM (inactive) | > 100 µM (inactive)

Reference: ChEMBL document CHEMBL1201862, “PubChem BioAssay data set” (2004)
